In patent US6337417B1, “N-phenyltetrahydrophthalamic acid derivatives, methods of producing same, and herbicides containing same as effective components” (Central Glass Co., Ltd., priority 1994, dated 2002):

What was measured:
[1] = tested on: ichibi (velvetleaf, Abutilon theophrasti); assay: Experiment 3 foliage treatment: ichibi; format: in vivo; parameters: key: 5: completely killed; 4: seriously injured; 3: considerably injured; 2: somewhat injured; 1: slightly injured; 0: not injured (normally grown); conditions: 4 weeks after treatment
Description: (§1) Upon seedling stage (two- or three-leaved stage) of ichibi (velvetleaf, Abutilon theophrasti), onamomi (heartleaf cocklebur, Xanthium strumarium) (4L stage), noasagao (blue morningglory, Ipomoea indica) and ooinutade (pale smartweed, Persicaria lapathifolia) which were grown on a cultivated soil put in pots of 1/8850 ares, a selected compound obtained in a manner analogous to Example 8, in suspended wettable powder, was sprayed to each plant. After that, the pots were kept in a glass chamber to allow each plant to grow, and after the lapse of 4 weeks from the treatment with the selected compounds the herbicidal effects were evaluated. The evaluation of the herbicidal effects was similarly conducted as to that of Experiment 1.

[2] = tested on: onamomi (heartleaf cocklebur, Xanthium strumarium); assay: Experiment 3 foliage treatment: onamomi; format: in vivo; parameters: key: 5: completely killed; 4: seriously injured; 3: considerably injured; 2: somewhat injured; 1: slightly injured; 0: not injured (normally grown); conditions: 4 weeks after treatment
Description: as §1

[3] = tested on: noasagao (blue morningglory, Ipomoea indica); assay: Experiment 3 foliage treatment: noasagao; format: in vivo; parameters: key: 5: completely killed; 4: seriously injured; 3: considerably injured; 2: somewhat injured; 1: slightly injured; 0: not injured (normally grown); conditions: 4 weeks after treatment
Description: as §1

[4] = tested on: ooinutade (pale smartweed, Persicaria lapathifolia); assay: Experiment 3 foliage treatment: ooinutade; format: in vivo; parameters: key: 5: completely killed; 4: seriously injured; 3: considerably injured; 2: somewhat injured; 1: slightly injured; 0: not injured (normally grown); conditions: 4 weeks after treatment
Description: as §1

[5] = tested on: ichibi (velvetleaf, Abutilon theophrasti); assay: Experiment 6 foliage treatment: ichibi; format: in vivo; parameters: key: 5: completely killed; 4: seriously injured; 3: considerably injured; 2: somewhat injured; 1: slightly injured; 0: not injured (normally grown); conditions: foliage spray of wettable powder suspension, evaluated 4 weeks after treatment
Description: as §1, with “(4 L” for “(4L”, “11,” for “8,”, “as” for “as to”

[6] = tested on: onamomi (heartleaf cocklebur, Xanthium strumarium); assay: Experiment 6 foliage treatment: onamomi; format: in vivo; parameters: key: 5: completely killed; 4: seriously injured; 3: considerably injured; 2: somewhat injured; 1: slightly injured; 0: not injured (normally grown); conditions: foliage spray of wettable powder suspension, evaluated 4 weeks after treatment
Description: as §1, with “(4 L” for “(4L”, “11,” for “8,”, “as” for “as to”

[7] = tested on: noasagao (blue morningglory, Ipomoea indica); assay: Experiment 6 foliage treatment: noasagao; format: in vivo; parameters: key: 5: completely killed; 4: seriously injured; 3: considerably injured; 2: somewhat injured; 1: slightly injured; 0: not injured (normally grown); conditions: foliage spray of wettable powder suspension, evaluated 4 weeks after treatment
Description: as §1, with “(4 L” for “(4L”, “11,” for “8,”, “as” for “as to”

[8] = tested on: ooinutade (pale smartweed, Persicaria lapathifolia); assay: Experiment 6 foliage treatment: ooinutade; format: in vivo; parameters: key: 5: completely killed; 4: seriously injured; 3: considerably injured; 2: somewhat injured; 1: slightly injured; 0: not injured (normally grown); conditions: foliage spray of wettable powder suspension, evaluated 4 weeks after treatment
Description: as §1, with “(4 L” for “(4L”, “11,” for “8,”, “as” for “as to”

[9] = tested on: ichibi (velvetleaf, Abutilon theophrasti); assay: Experiment 9 foliage treatment: ichibi; format: in vivo; parameters: key: 5: completely killed; 4: seriously injured; 3: considerably injured; 2: somewhat injured; 1: slightly injured; 0: not injured (normally grown); conditions: foliage spray of wettable powder suspension, evaluated 4 weeks after treatment
Description: as §1, with “14,” for “8,”, “as” for “as to”

[10] = tested on: onamomi (heartleaf cocklebur, Xanthium strumarium); assay: Experiment 9 foliage treatment: onamomi; format: in vivo; parameters: key: 5: completely killed; 4: seriously injured; 3: considerably injured; 2: somewhat injured; 1: slightly injured; 0: not injured (normally grown); conditions: foliage spray of wettable powder suspension, evaluated 4 weeks after treatment
Description: as §1, with “14,” for “8,”, “as” for “as to”

[11] = tested on: noasagao (blue morningglory, Ipomoea indica); assay: Experiment 9 foliage treatment: noasagao; format: in vivo; parameters: key: 5: completely killed; 4: seriously injured; 3: considerably injured; 2: somewhat injured; 1: slightly injured; 0: not injured (normally grown); conditions: foliage spray of wettable powder suspension, evaluated 4 weeks after treatment
Description: as §1, with “14,” for “8,”, “as” for “as to”

[12] = tested on: ooinutade (pale smartweed, Persicaria lapathifolia); assay: Experiment 9 foliage treatment: ooinutade; format: in vivo; parameters: key: 5: completely killed; 4: seriously injured; 3: considerably injured; 2: somewhat injured; 1: slightly injured; 0: not injured (normally grown); conditions: foliage spray of wettable powder suspension, evaluated 4 weeks after treatment
Description: as §1, with “14,” for “8,”, “as” for “as to”

**Q.** Which results are given for CCc1cnc(C2=NC(C)(C(C)C)C(=O)N2)c(C(=O)O)c1 (stereo not shown) [Comparative agentC, Pursuit, reference compound]?
**A.** Herbicidal Effect ichibi ([1]; 4 g/10a): 3; Herbicidal Effect ichibi ([1]; 8 g/10a): 3; Herbicidal Effect onamomi ([2]; 4 g/10a): 4; Herbicidal Effect onamomi ([2]; 8 g/10a): 5; Herbicidal Effect noasagao ([3]; 4 g/10a): 3; Herbicidal Effect noasagao ([3]; 8 g/10a): 4; Herbicidal Effect ooinutade ([4]; 4 g/10a): 5; Herbicidal Effect ooinutade ([4]; 8 g/10a): 5; Herbicidal Effect ichibi ([5]; 4 g/10a): 3; Herbicidal Effect ichibi ([5]; 8 g/10a): 3; Herbicidal Effect onamomi ([6]; 4 g/10a): 4; Herbicidal Effect onamomi ([6]; 8 g/10a): 5; Herbicidal Effect noasagao ([7]; 4 g/10a): 3; Herbicidal Effect noasagao ([7]; 8 g/10a): 4; Herbicidal Effect ooinutade ([8]; 4 g/10a): 5; Herbicidal Effect ooinutade ([8]; 8 g/10a): 5; Herbicidal Effet ichibi ([9]; 4 g/10a): 3; Herbicidal Effet ichibi ([9]; 8 g/10a): 3; Herbicidal Effet onamomi ([10]; 4 g/10a): 4; Herbicidal Effet onamomi ([10]; 8 g/10a): 5; Herbicidal Effet noasagao ([11]; 4 g/10a): 3; Herbicidal Effet noasagao ([11]; 8 g/10a): 4; Herbicidal Effet ooinutade ([12]; 4 g/10a): 5; Herbicidal Effet ooinutade ([12]; 8 g/10a): 5

**Q.** With COC(=O)Cc1sc(F)c(N(C(C)=O)C(=O)C2=C(C(=O)OC)CCCC2)c1Cl [compound 11, N-acetyl-N-(4-chloro-2-fluoro-5-methoxycarbonylmethylthiophenyl)-3,4,5,6-tetrahydrophthalamic acid methyl ester] as the compound, how does the melting point read?
**A.** The melting point was 124 to 124.5 °C.
